In patent US20240247080A1, “GLP1/GIP/NPY2 RECEPTOR TRIPLE AGONISTS” (Boehringer Ingelheim International GmbH, priority 2022, published 2024):
Read-outs that look alike come from different tables or passages of the source. Starred links: 1 amine or outer side, 2 acyl side, 3 side chain; linkers in the order of their positions; H or OH if unused. Non-standard residues stand in square brackets, D forms with d. Groups on a side chain read outwards from the residue. *: point of attachment. C20 diacid = O=C(O)CCCCCCCCCCCCCCCCCCC(=O)*; C18 diacid = O=C(O)CCCCCCCCCCCCCCCCC(=O)*; γGlu = O=C(O)[C@H](CCC(=O)[*:2])N[*:1]; εLys = N[C@@H](CCCCN[*:1])C(=O)[*:2]; AEEA = NCCOCCOCC(=O)O; Aib = CC(C)(N)C(=O)O

Legend:
Format in all cases: cell-based
Details in all cases: CreLuc reporter gene assay
hGIPR = molecular target: T1, hGIPR (Homo sapiens, UniProt P48546); assay: hGIPR CreLuc reporter gene assay in 0.5% and 100% plasma
T1 construct: expressed in transfected cells; host or cells: CHO cells carrying a CRE-luciferase reporter gene
T1 sequence (P48546 22-466): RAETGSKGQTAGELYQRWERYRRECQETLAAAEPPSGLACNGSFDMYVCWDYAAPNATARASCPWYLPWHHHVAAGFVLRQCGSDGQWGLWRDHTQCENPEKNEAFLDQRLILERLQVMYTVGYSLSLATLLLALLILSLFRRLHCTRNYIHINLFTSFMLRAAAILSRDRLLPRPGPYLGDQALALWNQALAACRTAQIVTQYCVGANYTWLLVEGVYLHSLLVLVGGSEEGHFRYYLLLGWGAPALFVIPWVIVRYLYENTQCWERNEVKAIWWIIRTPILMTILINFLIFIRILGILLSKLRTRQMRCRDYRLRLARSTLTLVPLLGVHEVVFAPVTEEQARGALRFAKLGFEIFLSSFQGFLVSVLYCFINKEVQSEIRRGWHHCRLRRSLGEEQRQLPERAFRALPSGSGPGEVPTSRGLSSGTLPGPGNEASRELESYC
Summary of the method: (§1)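 HEK cells (GLP-1R, NPY2R) or CHO cells (GIPR) carrying a CRE-luciferase reporter, incubated 4 h at 37 °C with peptides in HBSS/20 mM HEPES pH 7.4 plus 0.5% human plasma, or in 100% plasma. Luminescence read; EC50 from 8-point variable-slope sigmoid fits.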

hGLP1R = molecular target: T2, hGLP1R (Homo sapiens, UniProt P43220); assay: hGLP1R CreLuc reporter gene assay in 0.5% and 100% plasma
T2 construct: expressed in transfected cells; host or cells: HEK-293 cells carrying a CRE-luciferase reporter gene
T2 sequence (P43220 24-463): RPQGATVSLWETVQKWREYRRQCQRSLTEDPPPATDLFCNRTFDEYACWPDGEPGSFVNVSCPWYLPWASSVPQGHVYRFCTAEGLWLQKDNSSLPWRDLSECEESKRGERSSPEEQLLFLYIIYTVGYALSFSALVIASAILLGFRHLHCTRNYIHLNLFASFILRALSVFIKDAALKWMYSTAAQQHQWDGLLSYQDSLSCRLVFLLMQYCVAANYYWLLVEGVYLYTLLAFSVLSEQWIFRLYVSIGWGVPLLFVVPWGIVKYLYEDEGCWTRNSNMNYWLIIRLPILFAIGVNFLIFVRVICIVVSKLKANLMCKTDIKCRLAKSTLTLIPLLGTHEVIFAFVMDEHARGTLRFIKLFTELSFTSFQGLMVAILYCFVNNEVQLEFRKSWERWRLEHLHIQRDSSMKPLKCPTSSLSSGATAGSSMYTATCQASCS
Summary of the method: as §1

hNPY2R = molecular target: T3, hNPY2R (Homo sapiens, UniProt P49146); assay: hNPY2R CreLuc reporter gene assay in 0.5% and 100% plasma
T3 construct: expressed in transfected cells; host or cells: HEK-293 cells carrying a CRE-luciferase reporter gene
T3 sequence (P49146 1-381): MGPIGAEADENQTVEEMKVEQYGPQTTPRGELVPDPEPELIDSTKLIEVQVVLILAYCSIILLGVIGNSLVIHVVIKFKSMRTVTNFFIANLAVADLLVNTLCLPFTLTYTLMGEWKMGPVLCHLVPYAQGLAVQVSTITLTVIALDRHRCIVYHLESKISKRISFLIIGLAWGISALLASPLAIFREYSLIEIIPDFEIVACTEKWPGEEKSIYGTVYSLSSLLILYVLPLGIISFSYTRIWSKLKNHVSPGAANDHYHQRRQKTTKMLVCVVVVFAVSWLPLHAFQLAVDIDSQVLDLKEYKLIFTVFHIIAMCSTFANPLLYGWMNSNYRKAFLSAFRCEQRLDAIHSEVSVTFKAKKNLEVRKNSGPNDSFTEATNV
Summary of the method: as §1

[1] = 0.5% human plasma, read-out: hGIPR 0.5% hP
[2] = 100% human plasma, read-out: hGIPR 100% hP
[3] = 0.5% human plasma, read-out: hGLP1R 0.5% hP
[4] = 0.5% human plasma, read-out: hNPY2R 0.5% hP
[5] = 100% human plasma, read-out: hGLP1R 100% hP
[6] = 100% human plasma, read-out: hNPY2R 100% hP

Row | Substance | EC50 (hGIPR; [1]) | EC50 (hGIPR; [2]) | EC50 (hGLP1R; [3]) | EC50 (hNPY2R; [4]) | EC50 (hGLP1R; [5]) | EC50 (hNPY2R; [6])
1 | H-Y[Aib]EGTFTSDYSI[Aib]LEKQAQ[Aib]EFVEWLIK([AEEA-AEEA-γGlu-γGlu-γGlu-γGlu-C18 diacid])GGPSSPASLRHYYNWLTRQRY-NH2 [Compound 56, Y-Aib-E-G-T-F-T-S-D-Y-S-I-Aib-L-E-K-Q-A-Q-Aib-E-F-V-E-W-L-I-K(1,3)-GGPSSPASLRHYYNWLTRQRY-NH2.C18DA-gGlu-gGlu-gGlu-gGlu-OEG-OEG(1,2)] | 0.27 nM |  | 0.25 nM | 27.3 nM | 8.97 nM | 48.8 nM
2 | H-Y[Aib]EGTFTSDYSI[Aib]LEKQAQ[Aib]EFVEWLIK([γGlu-γGlu-γGlu-γGlu-γGlu-γGlu-C20 diacid])GGPSSGASLRHYYNWLTRQRY-NH2 [Compound 198, Y-Aib-E-G-T-F-T-S-D-Y-S-I-Aib-L-E-K-Q-A-Q-Aib-E-F-V-E-W-L-I-K(1,3)-GGPSSGASLRHYYNWLTRQRY-NH2.C20DA-gGlu-gGlu-gGlu-gGlu-gGlu-glu(1,2)] | 0.26 nM |  | 0.47 nM | 13.1 nM |  | 
3 | H-Y[Aib]EGTFTSDYSI[Aib]LEKQAQ[Aib]EFVEWLIK([εLys-γGlu-γGlu-γGlu-γGlu-γGlu-C18 diacid])GGPSSGASLRHYYNWLTRQRY-NH2 [Compound 159, Y-Aib-E-G-T-F-T-S-D-Y-S-I-Aib-L-E-K-Q-A-Q-Aib-E-F-V-E-W-L-I-K(1,3)-GGPSSGASLRHYYNWLTRQRY-NH2.C18DA-gGlu-gGlu-gGlu-gGlu-gGlu-eLys(1,2)] | 0.35 nM | 0.91 nM | 0.19 nM | 13.8 nM |  | 34.6 nM
4 | H-Y[Aib]EGTFTSDYSI[Aib]LEKQAQ[Aib]EFVEWLIK([εLys-γGlu-γGlu-γGlu-γGlu-γGlu-γGlu-C20 diacid])GGPSEGASLRHYYNWLTRQRY-NH2 [Compound 275, Y-Aib-E-G-T-F-T-S-D-Y-S-I-Aib-L-E-K-Q-A-Q-Aib-E-F-V-E-W-L-I-K(1,3)-GGPSEGASLRHYYNWLTRQRY-NH2.C20DA-gGlu-gGlu-gGlu-gGlu-gGlu-gGlu-eLys(1,2)] | 0.27 nM | 1.75 nM | 0.5 nM | 19.9 nM |  | 
5 | H-Y[Aib]EGTFTSDYSI[Aib]LEKQAQ[Aib]EFVEWLIK([εLys-γGlu-γGlu-γGlu-γGlu-γGlu-γGlu-γGlu-C20 diacid])GGPSSGASLRHYYNWLTRQRY-NH2 [Compound 88, Y-Aib-E-G-T-F-T-S-D-Y-S-I-Aib-L-E-K-Q-A-Q-Aib-E-F-V-E-W-L-I-K(1,3)-GGPSSGASLRHYYNWLTRQRY-NH2.C20DA-gGlu-gGlu-gGlu-gGlu-gGlu-gGlu-gGlu-eLys(1,2)] | 0.53 nM | 1.58 nM |  |  | 7.18 nM | 45.4 nM
6 | H-Y[Aib]EGTFTSDYSI[Aib]LEKQAQ[Aib]EFVQWLIK([AEEA-AEEA-γGlu-γGlu-γGlu-γGlu-γGlu-C20 diacid])GGPSSGASLRHYYNWLTRQRY-NH2 [Compound 36, Y-Aib-E-G-T-F-T-S-D-Y-S-I-Aib-L-E-K-Q-A-Q-Aib-E-F-V-Q-W-L-I-K(1,3)-GGPSSGASLRHYYNWLTRQRY-NH2.C20DA-gGlu-gGlu-gGlu-gGlu-gGlu-OEG-OEG(1,2)] | 0.26 nM | 1.57 nM | 0.28 nM | 8.03 nM |  | 26.8 nM
7 | H-Y[Aib]EGTFTSDYSI[Aib]LEKQAQ[Aib]EFVQWLIK([γGlu-γGlu-γGlu-γGlu-γGlu-C18 diacid])GGPSEGASLRHYYNWLTRQRY-NH2 [Compound 141, Y-Aib-E-G-T-F-T-S-D-Y-S-I-Aib-L-E-K-Q-A-Q-Aib-E-F-V-Q-W-L-I-K(1,3)-GGPSEGASLRHYYNWLTRQRY-NH2.C18DA-gGlu-gGlu-gGlu-gGlu-gGlu(1,2)] | 0.4 nM |  | 0.25 nM | 11.8 nM |  | 35.3 nM

Continued by falling EC50 (hGIPR; [1]), values first:

Row | EC50 (hGIPR; [1]) | EC50 (hGIPR; [2]) | EC50 (hGLP1R; [3]) | EC50 (hNPY2R; [4]) | EC50 (hGLP1R; [5]) | EC50 (hNPY2R; [6]) | Substance
8 | 0.91 nM |  | 0.26 nM | 18.9 nM | 4.39 nM |  | H-Y[Aib]EGTFTSDYSI[Aib]LEKQAQ[Aib]EFVQWLIK([γGlu-γGlu-γGlu-γGlu-γGlu-γGlu-C18 diacid])GGPSEGASLRHYYNWLTRQRY-NH2 [Compound 151, Y-Aib-E-G-T-F-T-S-D-Y-S-I-Aib-L-E-K-Q-A-Q-Aib-E-F-V-Q-W-L-I-K(1,3)-GGPSEGASLRHYYNWLTRQRY-NH2.C18DA-gGlu-gGlu-gGlu-gGlu-gGlu-gGlu(1,2)]
9 | 0.33 nM |  | 0.44 nM | 10.6 nM |  |  | H-Y[Aib]EGTFTSDYSI[Aib]LEKQAQ[Aib]EFVEWLIK([AEEA-AEEA-γGlu-γGlu-γGlu-γGlu-C20 diacid])GGPSSGASLRHYYNWLTRQRY-NH2 [Compound 205, Y-Aib-E-G-T-F-T-S-D-Y-S-I-Aib-L-E-K-Q-A-Q-Aib-E-F-V-E-W-L-I-K(1,3)-GGPSSGASLRHYYNWLTRQRY-NH2.C20DA-gGlu-gGlu-gGlu-gGlu-OEG-OEG(1,2)]
10 | 0.33 nM |  | 0.4 nM | 13.3 nM |  |  | H-Y[Aib]EGTFTSDYSI[Aib]LEKQAQ[Aib]EFVQWLIK([γGlu-γGlu-γGlu-γGlu-γGlu-γGlu-C20 diacid])GGPSEGASLRHYYNWLTRQRY-NH2 [Compound 185, Y-Aib-E-G-T-F-T-S-D-Y-S-I-Aib-L-E-K-Q-A-Q-Aib-E-F-V-Q-W-L-I-K(1,3)-GGPSEGASLRHYYNWLTRQRY-NH2.C20DA-gGlu-gGlu-gGlu-gGlu-gGlu-gGlu(1,2)]
11 | 0.26 nM | 1.81 nM | 0.21 nM | 12.9 nM | 10.4 nM |  | H-Y[Aib]EGTFTSDYSI[Aib]LEKQAQ[Aib]EFVQWLIK([γGlu-γGlu-γGlu-γGlu-C18 diacid])GGPSEGASLRHYYNWLTRQRY-NH2 [Compound 202, Y-Aib-E-G-T-F-T-S-D-Y-S-I-Aib-L-E-K-Q-A-Q-Aib-E-F-V-Q-W-L-I-K(1,3)-GGPSEGASLRHYYNWLTRQRY-NH2.C18DA-gGlu-gGlu-gGlu-gGlu(1,2)]
12 | 0.2 nM | 0.83 nM | 0.27 nM |  | 4.17 nM | 30.4 nM | H-Y[Aib]EGTFTSDYSI[Aib]LEKQAQ[Aib]EFVEWLIK([AEEA-AEEA-γGlu-γGlu-γGlu-C18 diacid])GGPSSGASLRHYYNWLTRQRY-NH2 [Compound 171, Y-Aib-E-G-T-F-T-S-D-Y-S-I-Aib-L-E-K-Q-A-Q-Aib-E-F-V-E-W-L-I-K(1,3)-GGPSSGASLRHYYNWLTRQRY-NH2.C18DA-gGlu-gGlu-gGlu-OEG-OEG(1,2)]
13 | 0.2 nM | 1.83 nM | 0.29 nM | 13.8 nM | 14.2 nM |  | H-Y[Aib]EGTFTSDYSI[Aib]LEKQAQ[Aib]EFVQWLIK([γGlu-γGlu-γGlu-γGlu-C20 diacid])GGPSEGASLRHYYNWLTRQRY-NH2 [Compound 194, Y-Aib-E-G-T-F-T-S-D-Y-S-I-Aib-L-E-K-Q-A-Q-Aib-E-F-V-Q-W-L-I-K(1,3)-GGPSEGASLRHYYNWLTRQRY-NH2.C20DA-gGlu-gGlu-gGlu-gGlu(1,2)]
14 | 0.17 nM | 1.03 nM | 0.51 nM | 17.3 nM |  |  | H-Y[Aib]EGTFTSDYSI[Aib]LEKQAQ[Aib]EFVEWLIK([AEEA-AEEA-γGlu-C18 diacid])GGPSEGASLRHYYNWLTRQRY-NH2 [Compound 282, Y-Aib-E-G-T-F-T-S-D-Y-S-I-Aib-L-E-K-Q-A-Q-Aib-E-F-V-E-W-L-I-K(1,3)-GGPSEGASLRHYYNWLTRQRY-NH2.C18DA-gGlu-OEG-OEG(1,2)]
